Measurements as given in patent US9845297B2, “Antimicrobial compounds and methods of making and using the same” (Melinta Therapeutics, Inc., priority 2009, dated 2017).

Tested on: Eschericia coli strain ATCC25922
Test: standard microdilution assay to determine minimum inhibitory concentrations (MICs)
Format: cell-based
Details: Escherichia coli, ATCC25922, Eschericia coli strain ATCC25922, standard microdilution assay; read-out: E. coli ATCC25922 MIC
Procedure, shortened: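 Broth microdilution per CLSI protocols, typically 100 µL final volume, against E. coli ATCC25922. MIC values scored as +/− against a cutoff of 16 micrograms/ml.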

SMILES	MIC [µg/mL]
NCCCNCc1ccc(-c2c[nH]c(NC(=O)NCc3ccc(Cl)cc3Cl)nc2=O)cc1F [Compound 463]	< 16
NCCCNCc1ccc(-c2c[nH]c(NC(=O)NCc3ccc(Cl)c(Cl)c3)nc2=O)cc1F [Compound 464]	> 16
N=C(N)NCCCN(CCCN)Cc1ccc(-c2c[nH]c(NC(=O)NCCc3ccc(F)cc3)nc2=O)cc1 [Compound 465]	> 16
N=C(N)NCCCC(CCCN)Cc1ccc(-c2c[nH]c(NC(=O)NCCc3cccc(Cl)c3)nc2=O)cc1 (stereo not shown) [Compound 466]	> 16
NCCCNCc1ccc(-c2c[nH]c(Nc3nc4cc(F)c(F)cc4o3)nc2=O)c(F)c1 [Compound 467]	< 16
NCCCN(CCCN)Cc1ccc(-c2c[nH]c(Nc3nc4cc(F)c(F)cc4[nH]3)nc2=O)cc1 [Compound 468]	< 16
NCCCN(CCCN)Cc1ccc(-c2c[nH]c(Nc3nc4cc(F)c(F)cc4o3)nc2=O)cc1 [Compound 470]	< 16
NCCCNCc1ccc(-c2c[nH]c(Nc3nc4cc(F)c(F)cc4o3)nc2=O)cc1F [Compound 471]	< 16
Cc1c(Cl)cc2nc(Nc3nc(=O)c(-c4ccc(CN(CCCN)CCCN)c(F)c4)c[nH]3)oc2c1Cl [Compound 472]	> 16
NCCCN(CCCN)Cc1ccc(-c2c[nH]c(Nc3nc4ccccc4[nH]3)nc2=O)cc1 [Compound 473]	> 16
NCCCN(CCCNC(N)N)Cc1ccc(-c2c[nH]c(Nc3nc4ccccc4[nH]3)nc2=O)cc1 [Compound 474]	< 16
N=C(N)NCCCN(CCCN)Cc1ccc(-c2c[nH]c(NC(=O)NCCc3ccc(Cl)cc3Cl)nc2=O)cc1 [Compound 476]	> 16
N=C(N)NCCCN(CCCN)Cc1ccc(-c2c[nH]c(NC(=O)NCCc3c(Cl)cccc3Cl)nc2=O)cc1 [Compound 477]	> 16
N=C(N)NCCCN(CCCN)Cc1ccc(-c2c[nH]c(NC(=O)NCCc3ccc(Cl)c(Cl)c3)nc2=O)cc1 [Compound 478]	> 16
NCCCNCc1ccc(-c2c[nH]c(NC(=O)Nc3c(Cl)cccc3Cl)nc2=O)cc1F [Compound 479]	> 16
NCCCNCc1ccc(-c2c[nH]c(NC(=O)Nc3cc(Cl)ccc3Cl)nc2=O)cc1F [Compound 480]	< 16
Cc1ccc(NC(=O)Nc2nc(=O)c(-c3ccc(CNCCCN)c(F)c3)c[nH]2)cc1C(F)(F)F [Compound 481]	> 16
NCCCNCc1ccc(-c2c[nH]c(NC(=O)Nc3cc(F)cc(C(F)(F)F)c3)nc2=O)cc1F [Compound 482]	> 16
NCCCNCc1ccc(-c2c[nH]c(NC(=O)Nc3cc(N)ccc3Cl)nc2=O)cc1F [Compound 483]	> 16
N=C(N)NCCCN1CC2(CCN(c3c[nH]c(NC(=O)Nc4ccccc4OC(F)(F)F)nc3=O)CC2)C1 [Compound 484]	> 16
NCCCNCc1ccc(-c2c[nH]c(NC(=O)Nc3cccc([N+](=O)[O-])c3)nc2=O)cc1F [Compound 485]	> 16
N#Cc1cccc(NC(=O)Nc2nc(=O)c(-c3ccc(CNCCCN)c(F)c3)c[nH]2)c1 [Compound 486]	> 16
NCCCNCc1ccc(-c2c[nH]c(Nc3ccc(C(F)(F)F)cc3)nc2=O)cc1 [Compound 487]	> 16
NCCCNCc1ccc(-c2c[nH]c(Nc3ccc(C(F)(F)F)cc3)nc2=O)cc1F [Compound 488]	> 16
NCCCN(CCCN)Cc1ccc(-c2c[nH]c(Nc3ccc(C(F)(F)F)cc3)nc2=O)cc1F [Compound 489]	> 16
N=C(N)NCCCN(CCCN)Cc1ccc(-c2c[nH]c(Nc3ccc(C(F)(F)F)cc3)nc2=O)cc1F [Compound 490]	> 16

SMILES	MIC [µg/mL]
N=C(N)NCCCN1CCCN(c2c[nH]c(NC(=O)Nc3ccccc3OC(F)(F)F)nc2=O)CC1 [Compound 491]	> 16
NCCCN1CCCN(c2c[nH]c(NC(=O)Nc3ccccc3OC(F)(F)F)nc2=O)CC1 [Compound 492]	> 16
NCCCNCc1ccc(-c2c[nH]c(Nc3nc4ccccc4[nH]3)nc2=O)c(F)c1 [Compound 493]	< 16
NCCCNCc1ccc(-c2c[nH]c(NC(=O)Nc3ccc([N+](=O)[O-])cc3Cl)nc2=O)cc1F [Compound 494]	> 16
Cc1cc([N+](=O)[O-])ccc1NC(=O)Nc1nc(=O)c(-c2ccc(CNCCCN)c(F)c2)c[nH]1 [Compound 495]	> 16
NCCCNCc1ccc(-c2c[nH]c(NC(=O)Nc3ccc(Cl)cc3Cl)nc2=O)cc1F [Compound 496]	< 16
NCCCNCc1ccc(-c2c[nH]c(NC(=O)Nc3cc(C(F)(F)F)ccc3Cl)nc2=O)cc1F [Compound 497]	< 16
NCCCCCN1CCC(c2c[nH]c(Nc3nc4ccccc4[nH]3)nc2=O)CC1 [Compound 499]	> 16
Cc1cc(CNCCCN)ccc1-c1c[nH]c(NC(=O)Nc2ccccc2OC(F)(F)F)nc1=O [Compound 500]	< 16
N=C(N)NCCCCCN1CCN(c2c[nH]c(NC(=O)Nc3cccc(Cl)c3F)nc2=O)CC1 [Compound 502]	> 16
N=C(N)NCCCCCN1CCC(c2c[nH]c(Nc3nc4ccccc4[nH]3)nc2=O)CC1 [Compound 503]	> 16
NCCCCCN1CCN(c2c[nH]c(NC(=O)Nc3cc(F)c(F)cc3F)nc2=O)CC1 [Compound 504]	> 16
N=C(N)NCCCCCN1CCN(c2c[nH]c(NC(=O)Nc3cc(F)c(F)cc3F)nc2=O)CC1 [Compound 505]	> 16
NCCCCN1CCC(c2c[nH]c(Nc3nc4ccccc4[nH]3)nc2=O)CC1 [Compound 509]	> 16
N=C(N)NCCCCN1CCC(c2c[nH]c(Nc3nc4ccccc4[nH]3)nc2=O)CC1 [Compound 510]	> 16
NCCCNCc1ccc(-c2c[nH]c(NC(=O)NCCc3ccccc3OC(F)(F)F)nc2=O)cc1F [Compound 512]	> 16
N=C(N)NCCCNCc1ccc(-c2c[nH]c(NC(=O)NCCc3ccccc3OC(F)(F)F)nc2=O)cc1F [Compound 513]	> 16
NCCCCCN1CCN(c2c[nH]c(Nc3nc4ccccc4[nH]3)nc2=O)CC1 [Compound 514]	> 16
N=C(N)NCCCCCN1CCN(c2c[nH]c(Nc3nc4ccccc4[nH]3)nc2=O)CC1 [Compound 515]	> 16
NCCCN1CCCC(c2c[nH]c(NC(=O)Nc3ccccc3OC(F)(F)F)nc2=O)CC1 (stereo not shown) [Compound 516]	> 16
N=C(N)NCCCN1CCCC(c2c[nH]c(NC(=O)Nc3ccccc3OC(F)(F)F)nc2=O)CC1 (stereo not shown) [Compound 517]	> 16
NCCCCCN1CCN(c2c[nH]c(NC(=O)Nc3ccccc3OC(F)(F)F)nc2=O)CC1 [Compound 518]	> 16
N=C(N)NCCCCCN1CCN(c2c[nH]c(NC(=O)Nc3ccccc3OC(F)(F)F)nc2=O)CC1 [Compound 519]	> 16
NCCCCN1CCN(c2c[nH]c(NC(=O)Nc3cc(F)c(F)cc3F)nc2=O)CC1 [Compound 520]	> 16
NCCCCN1CCN(c2c[nH]c(NC(=O)Nc3cccc(Cl)c3F)nc2=O)CC1 [Compound 521]	> 16
NCCCCN1CCN(c2c[nH]c(NC(=O)Nc3ccccc3OC(F)(F)F)nc2=O)CC1 [Compound 522]	> 16

SMILES	MIC [µg/mL]
NCCCCN1CCCC(c2c[nH]c(NC(=O)Nc3ccccc3OC(F)(F)F)nc2=O)CC1 (stereo not shown) [Compound 524]	> 16
N=C(N)NCCCCN1CCCC(c2c[nH]c(NC(=O)Nc3ccccc3OC(F)(F)F)nc2=O)CC1 (stereo not shown) [Compound 525]	> 16
COc1nc(NC(=O)NCCc2nc3ccccc3o2)ncc1-c1ccc(CNCCCN)c(F)c1 [Compound 526]	> 16
NCCCN1CC2(CCN(c3c[nH]c(NC(=O)Nc4ccccc4OC(F)(F)F)nc3=O)C2)C1 [Compound 527]	> 16
NCCCCN1CCN(c2c[nH]c(Nc3nc4ccccc4[nH]3)nc2=O)CC1 [Compound 530]	> 16
N=C(N)NCCCCN1CCN(c2c[nH]c(Nc3nc4ccccc4[nH]3)nc2=O)CC1 [Compound 531]	> 16
N=C(N)NCCCCN1CCN(c2c[nH]c(NC(=O)Nc3ccccc3OC(F)(F)F)nc2=O)CC1 [Compound 534]	> 16
NCCCCN1CCC(c2c[nH]c(NC(=O)Nc3cc(F)c(F)cc3F)nc2=O)CC1 [Compound 535]	> 16
NCCCCN1CCC(c2c[nH]c(NC(=O)Nc3cccc(Cl)c3F)nc2=O)CC1 [Compound 536]	> 16
NCCCCN1CCC(c2c[nH]c(NC(=O)Nc3ccccc3OC(F)(F)F)nc2=O)CC1 [Compound 537]	> 16
NCCCCCN1CCC(c2c[nH]c(NC(=O)Nc3cc(F)c(F)cc3F)nc2=O)CC1 [Compound 538]	> 16
NCCCNCc1ccc(-c2c[nH]c(NC(=O)NCCCc3ccccc3OC(F)(F)F)nc2=O)cc1F [Compound 539]	< 16
N=C(N)NCCCNCc1ccc(-c2c[nH]c(NC(=O)NCCCc3ccccc3OC(F)(F)F)nc2=O)cc1F [Compound 540]	> 16
NCCCCCN1CCN(c2c[nH]c(Nc3nc4cc(F)c(F)cc4[nH]3)nc2=O)CC1 [Compound 541]	> 16
N=C(N)NCCCCCN1CCC(c2c[nH]c(NC(=O)Nc3cc(F)c(F)cc3F)nc2=O)CC1 [Compound 545]	> 16
N=C(N)NCCCCN1CCC(c2c[nH]c(NC(=O)Nc3cc(F)c(F)cc3F)nc2=O)CC1 [Compound 546]	> 16
N=C(N)NCCCCN1CCC(c2c[nH]c(NC(=O)Nc3cccc(Cl)c3F)nc2=O)CC1 [Compound 547]	> 16
N=C(N)NCCCCN1CCC(c2c[nH]c(NC(=O)Nc3ccccc3OC(F)(F)F)nc2=O)CC1 [Compound 548]	> 16
NCCCCCN1CCC(c2c[nH]c(NC(=O)Nc3cccc(Cl)c3F)nc2=O)CC1 [Compound 549]	> 16
NCCCCCN1CCC(c2c[nH]c(NC(=O)Nc3ccccc3OC(F)(F)F)nc2=O)CC1 [Compound 550]	> 16
NCCCNCc1ccc(-c2c[nH]c(NC(=O)Nc3cc(F)c(F)cc3F)nc2=O)cn1 [Compound 551]	> 16
NCCCNCc1ccc(-c2c[nH]c(NC(=O)Nc3cccc(Cl)c3F)nc2=O)cn1 [Compound 552]	> 16
NCCCNCc1ccc(-c2c[nH]c(NC(=O)Nc3ccccc3OC(F)(F)F)nc2=O)cn1 [Compound 553]	> 16
NCCCNCc1ccc(-c2c[nH]c(NC(=O)NCCc3nc4cc(F)c(F)cc4[nH]3)nc2=O)cc1F [Compound 554]	> 16
